Experiments:
human OX2 receptors = molecular target: T1, human OX2 receptors (Homo sapiens, UniProt O43614); test: Antagonistic activity against human OX2 receptor, [Ca2+]i fluorimetry (Fluo-4NW) in transfected HEK-293 cells activated with orexin-B; type: cell-based; details: HEK-293 cells transfected with human recombinant OX2; orexin-B 10 nM; pKb = co-logarithm of apparent dissociation constant, modified Cheng Prusoff
T1 construct: expressed in transfected cells; host or cells: HEK-293 cells
T1 sequence (O43614 1-444): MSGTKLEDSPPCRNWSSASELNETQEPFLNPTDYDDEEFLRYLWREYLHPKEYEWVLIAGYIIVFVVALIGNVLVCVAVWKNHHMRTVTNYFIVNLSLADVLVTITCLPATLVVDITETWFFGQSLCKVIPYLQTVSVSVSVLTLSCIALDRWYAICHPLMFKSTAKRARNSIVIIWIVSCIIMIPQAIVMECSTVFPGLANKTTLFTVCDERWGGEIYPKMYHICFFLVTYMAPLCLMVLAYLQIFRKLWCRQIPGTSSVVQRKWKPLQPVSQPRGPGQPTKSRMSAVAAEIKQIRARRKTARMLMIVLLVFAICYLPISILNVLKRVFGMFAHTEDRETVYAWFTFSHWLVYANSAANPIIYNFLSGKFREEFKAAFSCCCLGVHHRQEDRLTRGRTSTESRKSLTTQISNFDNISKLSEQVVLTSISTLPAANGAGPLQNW
Experimental: (§1) In a typical experiment, the antagonistic activity against human OX1 and OX2 receptors is determined by using CHO e HEK-293 cells transfected with human recombinant OX1 and OX2 receptors respectively, seeded at density of 2 and 3×10^4 cells/well respectively in a 96 fluorimetry well plate. Thus the plate was loaded with the calcium dye (Fluo-4NW/probenecid in HBSS, Hepes 20 mM, pH 7.4; Invitrogen) at 37° C. for 60 min. Afterward the temperature was equilibrated at 22° C. for 15 min and the [Ca2+]i measured directly on the plate by using a fluorescent plate reader (CellLux Perkin Elmer).
(§2) Invention compounds were dissolved in DMSO, diluted in HBSS (DMSO, 0.3% final) and added to the wells. After 5 min CHO cells were activated with orexin-A, 3 nM while HEK-293 cells were activated with orexin-B, 10 nM.
(§3) The compounds, dissolved in DMSO and diluted in the medium (DMSO, 0.3% final), have been analysed in the 1 nM-1 μM concentration range (every concentration in duplicate). The antagonistic activity has been expressed as pKb (co-logarithm of the apparent dissociation constant calculated by using the modified Cheng Prusoff equation).
(§4) The results are expressed as percent of control specific […] response ((measured specific response/control specific agonist response)×100) obtained in the presence of the test compounds.
(§5) The IC50 values (concentration causing a half-maximal inhibition of the control specific agonist response) were determinated by non-linear regression analysis of the concentration curves generated with mean replicate values using hill equation curve fitting. The IC50 values are obtained by the arithmetical mean of at least two experiments. Compounds of the following example tested according to this example gave pKbs as follows: […]

human OX1 receptors = molecular target: T2, human OX1 receptors (Homo sapiens, UniProt O43613); test: Antagonistic activity against human OX1 receptor, [Ca2+]i fluorimetry (Fluo-4NW) in transfected CHO cells activated with orexin-A; type: cell-based; details: CHO cells transfected with human recombinant OX1; orexin-A 3 nM; pKb = co-logarithm of apparent dissociation constant, modified Cheng Prusoff
T2 construct: expressed in transfected cells; host or cells: CHO cells
T2 sequence (O43613 1-425): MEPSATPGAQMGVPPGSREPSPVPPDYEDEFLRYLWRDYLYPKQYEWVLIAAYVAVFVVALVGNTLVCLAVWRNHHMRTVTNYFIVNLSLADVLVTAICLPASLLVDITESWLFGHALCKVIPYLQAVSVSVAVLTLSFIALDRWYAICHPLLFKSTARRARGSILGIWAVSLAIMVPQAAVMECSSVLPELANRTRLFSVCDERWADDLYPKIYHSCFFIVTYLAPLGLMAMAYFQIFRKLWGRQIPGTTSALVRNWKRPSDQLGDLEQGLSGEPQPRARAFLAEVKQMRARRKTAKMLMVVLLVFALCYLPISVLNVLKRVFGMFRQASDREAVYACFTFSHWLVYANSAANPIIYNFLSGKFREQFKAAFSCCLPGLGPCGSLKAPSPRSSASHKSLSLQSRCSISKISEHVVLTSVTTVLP
Experimental: as §1, §2, §3, §4, §5

## Cc1ccc(-c2ncccn2)c(C(=O)N2CC3(CC3)C[C@H]2CNc2nccc(C(F)(F)F)n2)c1 [Compound 1p, (S)-(5-methyl-2-(pyrimidin-2-yl)phenyl)(6-(((4-(trifluoromethyl)pyrimidin-2-yl)amino)methyl)-5-azaspiro[2.4]heptan-5-yl)methanone]
Human OX2 receptors
  Kb: 20 nM
Human OX1 receptors
  Kb: 79.4 nM

## N#Cc1ccc(-c2ncccn2)c(C(=O)N2CC3(CC3)C[C@H]2CNc2ccc(C(F)(F)F)cn2)c1 [Compound E12, (S)-4-(pyrimidin-2-yl)-3-(6-(((5-(trifluoromethyl)-pyridin-2-yl)amino)methyl)-5-azaspiro[2.4]heptane-5-carbonyl)benzonitrile]
Human OX2 receptors
  Kb: 7.94 nM
Human OX1 receptors
  Kb: 10 nM

## Cc1ccc(-c2ncccn2)c(C(=O)N2CC3(CC3)C[C@H]2CNc2cnc(C(F)(F)F)cn2)n1 [Compound 3h, (S)-(6-methyl-3-(pyrimidin-2-yl)pyridin-2-yl)(6-(((5-(trifluoromethyl)pyrazin-2-yl)amino)methyl)-5-azaspiro[2.4]heptan-5-yl)methanone]
Human OX2 receptors
  Kb: 39.8 nM
Human OX1 receptors
  Kb: 6.31 nM

## Cc1cc(C(F)(F)F)cc(NC[C@@H]2CC3(CC3)CN2C(=O)c2nc(C)sc2-c2ccccc2)n1 [Compound 2k, (S)-(6-(((6-methyl-4-(trifluoromethyl)pyridin-2-yl)amino)methyl)-5-azaspiro[2.4]heptan-5-yl)(2-methyl-5-phenylthiazol-4-yl)methanone]
Human OX2 receptors
  Kb: 2.51 nM
Human OX1 receptors
  Kb: 15.8 nM

## Cc1ccc(-c2cccnc2)c(C(=O)N2CC3(CC3)C[C@H]2CNc2ccc(C(F)(F)F)cn2)n1 [Compound E6, (S)-(6-methyl-[3,3′-bipyridin]-2-yl)(6-(((5-(trifluoromethyl)pyridin-2-yl)amino)methyl)-5-azaspiro[2.4]heptan-5-yl)methanone]
Human OX2 receptors
  Kb: 200 nM
Human OX1 receptors
  Kb: 100 nM

## Cc1ccc(OCc2cc(F)cc(F)c2)c(C(=O)N2CC3(CC3)C[C@H]2CNc2ccc(C(F)(F)F)cn2)n1 [Compound 3o, (S)-(3-((3,5-difluorobenzyl)oxy)-6-methylpyridin-2-yl)(6-(((5-(trifluoromethyl)pyridin-2-yl)amino)methyl)-5-azaspiro[2.4]heptan-5-yl)methanone]
Human OX2 receptors
  Kb: 5.01 nM
Human OX1 receptors
  Kb: 6.31 nM

## Cc1ccc(-c2ncccn2)c(C(=O)N2CC3(CC3)C[C@H]2CNc2nccc3ncccc23)n1 [Compound 3p, (S)-(6-(((1,6-naphthyridin-5-yl)amino)methyl)-5-azaspiro[2.4]heptan-5-yl)(6-methyl-3-(pyrimidin-2-yl)pyridin-2-yl)methanone]
Human OX2 receptors
  Kb: 25.1 nM
Human OX1 receptors
  Kb: 126 nM

## O=C(c1cc(Cl)ccc1-c1ncccn1)N1CC2(CC2)C[C@H]1CNc1ncc(C(F)(F)F)cn1 [Compound 1u, (S)-(5-chloro-2-(pyrimidin-2-yl)phenyl)(6-(((5-(trifluoromethyl)pyrimidin-2-yl)amino)methyl)-5-azaspiro[2.4]heptan-5-yl)methanone]
Human OX2 receptors
  Kb: 200 nM
Human OX1 receptors
  Kb: 15.8 nM

## Cc1nc(C(=O)N2CC3(CC3)C[C@H]2CNc2ccc(Cl)cn2)c(-c2ccccc2)s1 [Compound 2a, (S)-(6-(((5-chloropyridin-2-yl)amino)methyl)-5-azaspiro[2.4]heptan-5-yl)(2-methyl-5-phenylthiazol-4-yl)methanone]
Human OX2 receptors
  Kb: 79.4 nM
Human OX1 receptors
  Kb: 5.01 nM

## Cc1nc(C(=O)N2CC3(CC3)C[C@H]2CNc2nc3ccc(F)cc3s2)c(-c2ccccc2)s1 [Compound 2h, (S)-(6-(((6-fluorobenzo[d]thiazol-2-yl)amino)methyl)-5-azaspiro[2.4]heptan-5-yl)(2-methyl-5-phenylthiazol-4-yl)methanone]
Human OX2 receptors
  Kb: 6.31 nM
Human OX1 receptors
  Kb: 3.98 nM

## O=C(c1cc(Cl)ccc1-c1ncccn1)N1CC2(CC2)C[C@H]1CNc1cc(C(F)(F)F)c(Cl)cn1 [Compound 1t, (S)-(5-chloro-2-(pyrimidin-2-yl)phenyl)(6-(((5-chloro-4-(trifluoromethyl)pyridin-2-yl)amino)methyl)-5-azaspiro[2.4]heptan-5-yl)methanone]
Human OX2 receptors
  Kb: 20 nM
Human OX1 receptors
  Kb: 7.94 nM

## Cc1ccc(-c2ncccn2)c(C(=O)N2CC3(CC3)C[C@H]2CNc2ncc(C(F)(F)F)cc2F)c1 [Compound 1l, (S)-(6-(((3-fluoro-5-(trifluoromethyl)pyridin-2-yl)amino)methyl)-5-azaspiro[2.4]heptan-5-yl)(5-methyl-2-(pyrimidin-2-yl)phenyl)methanone]
Human OX2 receptors
  Kb: 25.1 nM
Human OX1 receptors
  Kb: 5.01 nM

## O=C(c1cc(Cl)ccc1-c1ncccn1)N1CC2(CC2)C[C@H]1CNc1cc(Cl)c(C(F)(F)F)cn1 [Compound 1v, (S)-(5-chloro-2-(pyrimidin-2-yl)phenyl)(6-(((4-chloro-5-(trifluoromethyl)pyridin-2-yl)amino)methyl)-5-azaspiro[2.4]heptan-5-yl)methanone]
Human OX2 receptors
  Kb: 10 nM
Human OX1 receptors
  Kb: 6.31 nM

## Cc1ccc(-c2ncccn2)c(C(=O)N2CC3(CC3)C[C@H]2CNc2ncc(C(F)(F)F)cn2)c1 [Compound 1s, (S)-(5-methyl-2-(pyrimidin-2-yl)phenyl)(6-(((5-(trifluoromethyl)pyrimidin-2-yl)amino)methyl)-5-azaspiro[2.4]heptan-5-yl)methanone]
Human OX2 receptors
  Kb: 100 nM
Human OX1 receptors
  Kb: 25.1 nM

## Cc1ccc(-c2ncccn2)c(C(=O)N2CC3(CC3)C[C@H]2CNc2cc(C(F)(F)F)c(Cl)cn2)c1 [Compound 1r, (S)-(6-(((5-chloro-4-(trifluoromethyl)pyridin-2-yl)amino)methyl)-5-azaspiro[2.4]heptan-5-yl)(5-methyl-2-(pyrimidin-2-yl)phenyl)methanone]
Human OX2 receptors
  Kb: 10 nM
Human OX1 receptors
  Kb: 6.31 nM

## Cc1ccc(-c2ncccn2)c(C(=O)N2CC3(CC3)C[C@H]2CNc2nc3cc(Cl)ccc3o2)n1 [Compound E10, (S)-(6-(((5-chlorobenzo[d]oxazol-2-yl)amino)methyl)-5-azaspiro[2.4]heptan-5-yl)(6-methyl-3-(pyrimidin-2-yl)pyridin-2-yl)methanone]
Human OX2 receptors
  Kb: 79.4 nM
Human OX1 receptors
  Kb: 7.94 nM

## Cc1ccc(OCc2ccc(F)cc2F)c(C(=O)N2CC3(CC3)C[C@H]2CNc2ccc(C(F)(F)F)cn2)n1 [Compound 3n, (S)-(3-((2,4-difluorobenzyl)oxy)-6-methylpyridin-2-yl)(6-(((5-(trifluoromethyl)pyridin-2-yl)amino)methyl)-5-azaspiro[2.4]heptan-5-yl)methanone]
Human OX2 receptors
  Kb: 79.4 nM
Human OX1 receptors
  Kb: 79.4 nM

## Cc1ccc(OCc2cccc(F)c2F)c(C(=O)N2CC3(CC3)C[C@H]2CNc2ccc(C(F)(F)F)cn2)n1 [Compound 3l, (S)-(3-((2,3-difluorobenzyl)oxy)-6-methylpyridin-2-yl)(6-(((5-(trifluoromethyl)pyridin-2-yl)amino)methyl)-5-azaspiro[2.4]heptan-5-yl)methanone]
Human OX2 receptors
  Kb: 7.94 nM
Human OX1 receptors
  Kb: 25.1 nM

## O=C(c1c(F)cccc1-c1ncccn1)N1CC2(CC2)C[C@H]1CNc1ncc(C(F)(F)F)cc1F [Compound 1g, (S)-(6-(((3-fluoro-5-(trifluoromethyl)pyridin-2-yl)amino)methyl)-5-azaspiro[2.4]heptan-5-yl)(2-fluoro-6-(pyrimidin-2-yl)phenyl)methanone]
Human OX2 receptors
  Kb: 39.8 nM
Human OX1 receptors
  Kb: 1.26 nM

## O=C(c1cc(Br)ccc1-c1ncccn1)N1CC2(CC2)C[C@H]1CNc1ccc(C(F)(F)F)cn1 [Compound 1e, (S)-(5-bromo-2-(pyrimidin-2-yl)phenyl)(6-(((5-(trifluoromethyl)pyridin-2-yl)amino)methyl)-5-azaspiro[2.4]heptan-5-yl)methanone]
Human OX2 receptors
  Kb: 20 nM
Human OX1 receptors
  Kb: 3.16 nM
